Results reported in patent US20230265524A1, “IMMUNOGENIC RETROELEMENTS AND THEIR USE IN CANCER THERAPY” (UNIVERSITY HEALTH NETWORK, priority 2020, published 2023).

Columns and labels:
[1] = tested on: interferon stimulated genes (ISG15, DDX58 and IRF7); assay: interferon response / ISG expression by RNA-seq GSEA and qRT-PCR in patient-derived CRC cells; assay type: cell-based, human; details: transfection in wild-type and ADAR1-depleted cells, across time-points
Excerpt: H, Geneset Enrichment Analysis showing an enrichment of the geneset ‘Hallmark_Interferon_Alpha_Response’ in ADAR1^KD 5-AZA-treated cells compared to ADAR1^WT 5-AZA-CdR treated cells.
I, Interferon-responsive geneset enrichment score in mock-treated ADAR1^WT, 5-AZA-CdR-treated ADAR1^WT, mock-treated ADAR1^KD, and 5-AZA-CdR-treated ADAR1^KD conditions. Samples were collected 5, 14, and 24 days post-treatment.
B, Kinetics of interferon stimulated genes (ISG15, DDX58 and IRF7) relative expression in ADAR1^WT (Black) and ADAR1^KD (Gray) patient-derived colorectal cancer cells (CRCs) treated with 5-AZA-CdR analyzed by qRT-PCR. Data are mean±s.e.m. (n=3 from three independent experiments). *P<0.05, **P<0.01, ****P<0.0001, Sidak-corrected two-way ANOVA.
C, Interferon-responsive gene expression in ADAR1^WT mock-treated (MT), 5-AZA-CdR treated, ADAR1^KD NT and ADAR1^KD p(I:C) transfected samples collected 5 days, 14 days and 24 days post-treatment, measured by RNA-seq.
D, Kinetics of interferon stimulated genes (ISG15, DDX58 and IRF7) relative expression in ADAR1^WT (Black) and ADAR1^KD (Gray) patient-derived CRCs transfected with p(I:C), analyzed by qRT-PCR. Data are mean±s.e.m. **P<0.01, ****P<0.0001, Sidak-corrected two-way ANOVA.
F, Interferon stimulated genes (ISG15, DDX58 and IRF7) relative expression in CTRL (LUC) (Black) and ADAR1^p150CE (Gray) patient-derived CRCs treated with 5-AZA-CdR, analyzed by qRT-PCR. Data are mean±s.e.m. **P<0.01, ***P<0.001, Sidak-corrected two-way ANOVA.
G, IFN enrichment score in CTRL(LUC) Mock-treated, 5-AZA-CdR treated, ADAR1-p150 overexpressing NT and ADAR1-p150 overexpressing 5-AZA-CdR treated samples collected 5 days post-treatment and measured by RNA-seq.
Based on these findings, we hypothesized that ADAR1 depletion would synergize with the viral mimicry response induced by DNMTi treatment. To assess how ADAR1 depletion affects 5-AZA-CdR treated samples, we performed RNA-seq analyses in patient-derived CRC cells. […] As a molecular read-out of dsRNA pattern recognition activation, we measured MAVS aggregation in the mitochondrial fraction of cell lysates^34. […] Taken together, our findings establish that ADAR1 acts as a negative feedback loop, restricting the viral mimicry response induced by DNMTi treatment in cancer cells.

ADAR1 = assay: qPCR analysis of ADAR1 mRNA level and isoforms; assay type: cell-based, human; details: CRC cells transiently transfected, 100 ng/ml
Method: C, qPCR analysis of total ADAR1 mRNA level after treatment with 5-AZA-CdR (300 nM, for 5 days) or transfection with 100 ng ml-1 poly(I:C) over a course of 24 days. Cells were washed out at day 5 and seeded in drug-free medium. Data are mean±s.e.m.****P<0.0001, Sidak-corrected two-way ANOVA.
A, ADAR1 isoforms (p110 and p150) relative expression analysed by qPCR. LACZ denotes ADAR1WT; PIC denotes 100 ng/ml poly (I:C) for 5 days; AZA denotes 300 nM 5-AZA-CdR for 5 days). Data are mean±s.e.m. (n=3 from three independent experiments). ***P<0.001, ****P<0.0001, Tukey-corrected two-way ANOVA.
To test this hypothesis, we first determined if ADAR1 depletion affects dsRNA formation by IR-Alus in untreated patient-derived CRCs. We generated ADAR1 knock-down CRCs using two different hairpin RNAs (ADAR1^KDA/B) and confirmed depletion of both the constitutively expressed (p110) and interferon-inducible (p150) ADAR1 isoforms (FIG. 8A). […] To determine if MDA5 ligands also increase upon ADAR1 depletion, we performed the MDA5 protection assay followed by RNA-Seq, as above. […] Again, these immunogenic Alus were primarily IR-Alu pairs unidirectionally transcribed in either the sense (+/+) or antisense (−/−) direction and induced upon ADAR1 depletion (FIG. 9C-J).
Next, we tested whether epigenetic therapy can induce and activate ADAR1 editing activity.

For Poly(I:C), the “activation of ISGs” value [1] was “comparable activation of ISGs across time-points” and the “interferon-inducible isoform of ADAR1 (p150) expression” value (ADAR1) was “acute up-regulation”.
